From article PMC11167047 (Cell Death Discovery, 2024)

How the values were obtained:
Test in all cases: kinome screen (33PanQinase)
Format in all cases: biochemical
[1] = molecular target: T1, CSF1R (Homo sapiens, UniProt P07333)
T1 construct: purchased Reaction Biology Europe GmbH (formerly ProQinase)
Protocol: (§1) The Kinome Screening was performed by Reaction Biology Europe GmbH (http://reactionbiology.com; Freiburg i. Br., Germany).

[2] = molecular target: T2, EPHB2 (Homo sapiens, UniProt P29323)
T2 construct: purchased Reaction Biology Europe GmbH (formerly ProQinase)
T2 sequence (P29323 19-1055): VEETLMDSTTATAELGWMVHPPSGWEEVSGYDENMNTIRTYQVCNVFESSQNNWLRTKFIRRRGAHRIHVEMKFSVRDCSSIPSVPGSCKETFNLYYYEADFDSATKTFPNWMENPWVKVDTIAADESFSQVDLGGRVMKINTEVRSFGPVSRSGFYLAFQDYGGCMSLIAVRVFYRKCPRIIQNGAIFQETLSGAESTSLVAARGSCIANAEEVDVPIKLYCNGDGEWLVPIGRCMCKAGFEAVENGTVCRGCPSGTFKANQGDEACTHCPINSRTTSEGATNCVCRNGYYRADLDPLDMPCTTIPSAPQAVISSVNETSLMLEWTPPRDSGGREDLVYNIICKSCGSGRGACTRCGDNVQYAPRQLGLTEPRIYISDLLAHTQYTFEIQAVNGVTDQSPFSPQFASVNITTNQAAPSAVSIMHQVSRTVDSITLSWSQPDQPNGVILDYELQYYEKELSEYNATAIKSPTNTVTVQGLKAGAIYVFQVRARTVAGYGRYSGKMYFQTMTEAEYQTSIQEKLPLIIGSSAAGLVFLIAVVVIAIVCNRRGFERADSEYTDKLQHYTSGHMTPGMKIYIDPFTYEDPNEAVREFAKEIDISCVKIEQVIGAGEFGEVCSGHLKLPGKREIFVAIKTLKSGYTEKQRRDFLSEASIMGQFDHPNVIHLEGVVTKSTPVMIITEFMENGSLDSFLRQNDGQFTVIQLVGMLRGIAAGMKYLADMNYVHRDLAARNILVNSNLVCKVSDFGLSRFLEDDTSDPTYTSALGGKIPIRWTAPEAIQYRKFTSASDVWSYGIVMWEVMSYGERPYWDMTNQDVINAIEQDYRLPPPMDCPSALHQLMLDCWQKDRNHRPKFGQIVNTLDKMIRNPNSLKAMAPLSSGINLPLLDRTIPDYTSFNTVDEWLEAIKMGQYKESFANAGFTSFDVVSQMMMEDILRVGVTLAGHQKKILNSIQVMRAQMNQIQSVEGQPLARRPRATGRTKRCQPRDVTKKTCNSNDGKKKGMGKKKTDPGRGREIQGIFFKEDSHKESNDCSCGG
Protocol: as §1

[3] = molecular target: T3, MST1 (Homo sapiens, UniProt Q13043)
T3 construct: purchased Reaction Biology Europe GmbH (formerly ProQinase)
T3 sequence (Q13043 1-487): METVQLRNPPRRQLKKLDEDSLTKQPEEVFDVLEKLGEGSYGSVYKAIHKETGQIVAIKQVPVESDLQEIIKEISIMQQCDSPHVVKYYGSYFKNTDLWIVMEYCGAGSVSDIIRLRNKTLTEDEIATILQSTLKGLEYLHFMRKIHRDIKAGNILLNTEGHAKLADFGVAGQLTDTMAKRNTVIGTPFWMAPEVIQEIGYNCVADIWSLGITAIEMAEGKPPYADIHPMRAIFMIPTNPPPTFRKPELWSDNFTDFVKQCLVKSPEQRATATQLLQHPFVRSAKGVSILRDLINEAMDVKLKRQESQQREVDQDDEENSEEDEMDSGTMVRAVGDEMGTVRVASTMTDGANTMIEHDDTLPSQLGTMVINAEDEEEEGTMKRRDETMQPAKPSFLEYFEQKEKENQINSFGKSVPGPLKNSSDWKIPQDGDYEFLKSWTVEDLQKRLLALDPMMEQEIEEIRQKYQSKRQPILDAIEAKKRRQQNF
Protocol: as §1

[4] = molecular target: T4, NEK4 (Homo sapiens, UniProt P51957)
T4 construct: purchased Reaction Biology Europe GmbH (formerly ProQinase)
Protocol: as §1

[5] = molecular target: T5, PKN3 (Homo sapiens, UniProt Q6P5Z2)
T5 construct: purchased Reaction Biology Europe GmbH (formerly ProQinase)
Protocol: as §1

[6] = molecular target: T6, SNARK (Homo sapiens, UniProt Q9H093)
T6 construct: purchased Reaction Biology Europe GmbH (formerly ProQinase)
T6 sequence (Q9H093 1-628): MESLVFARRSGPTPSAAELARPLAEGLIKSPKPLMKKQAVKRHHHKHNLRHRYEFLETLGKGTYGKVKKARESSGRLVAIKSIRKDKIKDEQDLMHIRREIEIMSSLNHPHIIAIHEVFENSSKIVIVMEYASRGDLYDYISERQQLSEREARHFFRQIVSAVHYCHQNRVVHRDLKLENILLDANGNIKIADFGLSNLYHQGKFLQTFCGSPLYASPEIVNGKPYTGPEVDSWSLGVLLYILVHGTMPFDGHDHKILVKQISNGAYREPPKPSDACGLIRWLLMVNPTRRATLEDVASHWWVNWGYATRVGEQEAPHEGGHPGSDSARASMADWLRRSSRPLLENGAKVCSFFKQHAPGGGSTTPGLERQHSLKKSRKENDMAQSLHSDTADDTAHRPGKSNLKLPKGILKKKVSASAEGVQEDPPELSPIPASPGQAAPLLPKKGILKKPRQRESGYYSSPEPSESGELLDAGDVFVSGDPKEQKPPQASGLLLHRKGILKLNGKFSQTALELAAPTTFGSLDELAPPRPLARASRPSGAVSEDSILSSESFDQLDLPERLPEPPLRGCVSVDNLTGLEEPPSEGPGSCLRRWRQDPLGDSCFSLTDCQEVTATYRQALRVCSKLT
Protocol: as §1

T5 sequence (Q6P5Z2 whole entry): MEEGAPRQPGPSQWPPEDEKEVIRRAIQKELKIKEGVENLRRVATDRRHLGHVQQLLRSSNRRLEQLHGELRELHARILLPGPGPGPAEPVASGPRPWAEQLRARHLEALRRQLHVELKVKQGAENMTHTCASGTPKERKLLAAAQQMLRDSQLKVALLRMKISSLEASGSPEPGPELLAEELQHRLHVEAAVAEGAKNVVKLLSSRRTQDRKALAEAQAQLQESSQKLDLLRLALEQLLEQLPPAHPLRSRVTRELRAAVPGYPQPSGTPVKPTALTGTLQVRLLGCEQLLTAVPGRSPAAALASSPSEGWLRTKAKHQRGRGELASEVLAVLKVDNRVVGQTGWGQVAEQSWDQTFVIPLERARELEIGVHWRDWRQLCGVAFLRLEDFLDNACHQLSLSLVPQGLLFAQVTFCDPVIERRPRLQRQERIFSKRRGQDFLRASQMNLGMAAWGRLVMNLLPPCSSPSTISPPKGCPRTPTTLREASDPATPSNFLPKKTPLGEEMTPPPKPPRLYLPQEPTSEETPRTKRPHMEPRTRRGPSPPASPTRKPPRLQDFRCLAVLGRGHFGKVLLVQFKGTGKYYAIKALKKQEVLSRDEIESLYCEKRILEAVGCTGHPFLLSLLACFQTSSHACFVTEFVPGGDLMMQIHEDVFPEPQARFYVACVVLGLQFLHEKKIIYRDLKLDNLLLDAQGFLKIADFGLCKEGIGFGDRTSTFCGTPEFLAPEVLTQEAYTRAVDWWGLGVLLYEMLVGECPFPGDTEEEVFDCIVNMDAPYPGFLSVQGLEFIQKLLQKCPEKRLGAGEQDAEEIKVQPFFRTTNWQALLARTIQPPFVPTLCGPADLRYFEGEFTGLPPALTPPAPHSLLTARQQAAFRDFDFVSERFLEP
T4 sequence (P51957 whole entry): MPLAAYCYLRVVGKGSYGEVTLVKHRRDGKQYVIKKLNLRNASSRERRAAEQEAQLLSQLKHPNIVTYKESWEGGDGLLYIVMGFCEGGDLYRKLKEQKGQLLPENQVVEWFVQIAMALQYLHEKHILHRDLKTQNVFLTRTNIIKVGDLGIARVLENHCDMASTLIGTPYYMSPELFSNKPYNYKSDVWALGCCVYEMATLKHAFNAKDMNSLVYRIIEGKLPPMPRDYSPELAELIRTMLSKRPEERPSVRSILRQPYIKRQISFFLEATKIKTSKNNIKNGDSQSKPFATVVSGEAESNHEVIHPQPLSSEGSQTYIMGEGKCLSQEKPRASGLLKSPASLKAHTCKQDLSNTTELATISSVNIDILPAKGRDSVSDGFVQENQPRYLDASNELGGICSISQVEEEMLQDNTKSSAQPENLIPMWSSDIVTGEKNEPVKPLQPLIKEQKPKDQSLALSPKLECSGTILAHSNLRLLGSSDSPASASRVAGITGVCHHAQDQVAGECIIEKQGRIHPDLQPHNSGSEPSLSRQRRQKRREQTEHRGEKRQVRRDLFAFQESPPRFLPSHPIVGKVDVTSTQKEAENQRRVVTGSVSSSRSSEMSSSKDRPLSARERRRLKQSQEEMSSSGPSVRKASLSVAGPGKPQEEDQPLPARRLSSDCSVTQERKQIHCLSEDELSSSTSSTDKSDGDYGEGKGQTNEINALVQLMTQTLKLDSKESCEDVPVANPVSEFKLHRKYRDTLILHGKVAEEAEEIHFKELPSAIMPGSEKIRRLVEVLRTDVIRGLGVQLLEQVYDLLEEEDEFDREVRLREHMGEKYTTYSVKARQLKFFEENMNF
T1 sequence (P07333 20-972): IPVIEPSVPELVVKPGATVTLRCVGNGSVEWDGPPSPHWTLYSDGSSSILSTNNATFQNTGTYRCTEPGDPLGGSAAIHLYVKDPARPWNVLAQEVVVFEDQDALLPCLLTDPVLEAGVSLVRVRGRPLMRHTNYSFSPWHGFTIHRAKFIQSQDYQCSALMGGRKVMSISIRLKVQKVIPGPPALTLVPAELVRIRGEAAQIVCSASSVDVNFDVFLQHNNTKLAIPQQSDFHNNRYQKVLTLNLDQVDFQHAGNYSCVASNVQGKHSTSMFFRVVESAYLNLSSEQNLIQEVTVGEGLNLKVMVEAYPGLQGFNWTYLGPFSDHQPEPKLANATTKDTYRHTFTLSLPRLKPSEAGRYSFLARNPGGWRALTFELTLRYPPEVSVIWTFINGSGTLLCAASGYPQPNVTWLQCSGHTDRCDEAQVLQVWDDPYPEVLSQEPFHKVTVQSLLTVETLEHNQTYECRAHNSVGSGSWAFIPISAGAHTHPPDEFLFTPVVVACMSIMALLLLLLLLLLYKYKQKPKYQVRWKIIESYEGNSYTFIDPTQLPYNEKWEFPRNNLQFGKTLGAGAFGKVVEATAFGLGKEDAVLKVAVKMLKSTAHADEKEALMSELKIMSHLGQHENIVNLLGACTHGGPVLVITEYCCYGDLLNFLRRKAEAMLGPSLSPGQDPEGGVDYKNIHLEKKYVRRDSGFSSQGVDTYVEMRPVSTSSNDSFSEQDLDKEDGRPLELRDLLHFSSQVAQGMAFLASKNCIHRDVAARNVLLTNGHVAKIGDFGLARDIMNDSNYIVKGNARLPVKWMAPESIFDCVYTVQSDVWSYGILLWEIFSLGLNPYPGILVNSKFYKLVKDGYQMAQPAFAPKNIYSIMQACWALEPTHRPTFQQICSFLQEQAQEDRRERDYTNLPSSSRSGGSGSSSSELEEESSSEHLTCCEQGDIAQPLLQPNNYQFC

`COc1ccnc2[nH]cc(-c3cc(N)nc(N)c3)c12` [meriolin 16] was tested, and the residual kinase activity ([1]; 0.03 µM) was 90 % of control, the residual kinase activity ([1]; 0.3 µM) was 88 % of control and the residual kinase activity ([2]; 0.03 µM) was 97 % of control. The residual kinase activity ([2]; 0.3 µM) was 95 % of control, the residual kinase activity ([3]; 0.03 µM) was 88 % of control and the residual kinase activity ([3]; 0.3 µM) was 49 % of control. For the same compound, the residual kinase activity ([4]; 0.03 µM) was 89 % of control, the residual kinase activity ([4]; 0.3 µM) was 47 % of control and the residual kinase activity ([5]; 0.03 µM) was 83 % of control. For the same compound, the residual kinase activity ([5]; 0.3 µM) was 74 % of control, the residual kinase activity ([6]; 0.03 µM) was 99 % of control and the residual kinase activity ([6]; 0.3 µM) was 64 % of control.

With `c1ccc(CNc2cc(-c3c[nH]c4ncccc34)ccn2)cc1` [meriolin 36] the residual kinase activity ([1]; 0.3 µM) was 33 % of control, the residual kinase activity ([1]; 3 µM) was 14 % of control and the residual kinase activity ([2]; 0.3 µM) was 85 % of control. The residual kinase activity ([2]; 3 µM) was 47 % of control, the residual kinase activity ([3]; 0.3 µM) was 4 % of control and the residual kinase activity ([3]; 3 µM) was 1 % of control. For the same compound, the residual kinase activity ([4]; 0.3 µM) was 84 % of control, the residual kinase activity ([4]; 3 µM) was 37 % of control and the residual kinase activity ([5]; 0.3 µM) was 27 % of control. For the same compound, the residual kinase activity ([5]; 3 µM) was 3 % of control, the residual kinase activity ([6]; 0.3 µM) was 30 % of control and the residual kinase activity ([6]; 3 µM) was 5 % of control.
